The test system of experiment [1] is Rattus norvegicus. Kind of experiment: Wound healing activity in Rattus norvegicus Swiss albino Wistar (rat) excision wound model assessed as wound closure at 0.2% w/v administered topically measured on day 4 post-wounding (reference value: 25.59 +/- 1.79%). The experiment is classed as functional.
Experiment [2] has as its system Rattus norvegicus. Kind of experiment: Wound healing activity in Rattus norvegicus Swiss albino Wistar (rat) excision wound model assessed as time of epithelialization at 0.2% w/v administered topically (reference value: 24 +/- 0.26 days). The experiment is classed as functional.
Experiment [3] deals with Rattus norvegicus. Kind of experiment: Wound healing activity in Rattus norvegicus Swiss albino Wistar (rat) dead space wound model assessed as tissue breaking strength at 5 mg/ml, po measured on day 10 post-wounding (reference value: 260.83 +/- 14.05 g). The experiment is classed as functional.
The subject of experiment [4] is Rattus norvegicus. Description: Wound healing activity in Rattus norvegicus Swiss albino Wistar (rat) incision wound model assessed as skin breaking strength at 5 mg/ml, po measured on day 10 post-wounding by tensiometric analysis (reference value: 400 +/- 28.87 g). In kind it is functional.
Experiment [5] relates to Rattus norvegicus. Description: Wound healing activity in Rattus norvegicus Swiss albino Wistar (rat) excision wound model assessed as wound closure at 0.2% w/v administered topically measured on day 8 post-wounding (reference value: 48.75 +/- 1.34%). The experiment is classed as functional.
Experiment [6] has as its system Rattus norvegicus. Kind of experiment: Wound healing activity in Rattus norvegicus Swiss albino Wistar (rat) excision wound model assessed as wound closure at 0.2% w/v administered topically measured on day 12 post-wounding (reference value: 69.04 +/- 1.05%). In kind it is functional.
The subject of experiment [7] is Rattus norvegicus. Kind of experiment: Wound healing activity in Rattus norvegicus Swiss albino Wistar (rat) dead space wound model assessed as hydroxyproline content per 100 g tissue at 5 mg/ml, po measured on day 10 post-wounding by Neuman-Logan method (reference value: 1369.67 +/- 10.54 ug). The experiment is classed as functional.
Experiment [8] concerns Rattus norvegicus. Description: Wound healing activity in Rattus norvegicus Swiss albino Wistar (rat) excision wound model assessed as wound closure at 0.2% w/v administered topically measured on day 16 post-wounding (reference value: 83.31 +/- 1.06%). The experiment is classed as functional.
The subject of experiment [9] is Rattus norvegicus. Kind of experiment: Wound healing activity in Rattus norvegicus Swiss albino Wistar (rat) dead space wound model assessed as granular tissue weight per 100 g tissue at 5 mg/ml, po measured on day 10 post-wounding (reference value: 31 +/- 0.93 mg). In kind it is functional.
Experiment [10] deals with Rattus norvegicus. Kind of experiment: Wound healing activity in Rattus norvegicus Swiss albino Wistar (rat) dead space wound model assessed as granular tissue weight per 100 g tissue at 10 mg/ml, po measured on day 10 post-wounding (reference value: 31 +/- 0.93 mg). The experiment is classed as functional.
In experiment [11] the test system is Rattus norvegicus. Description: Wound healing activity in Rattus norvegicus Swiss albino Wistar (rat) dead space wound model assessed as tissue breaking strength at 10 mg/ml, po measured on day 10 post-wounding (reference value: 260.83 +/- 14.05 g). The experiment is classed as functional.
In experiment [12] the test system is Rattus norvegicus. Kind of experiment: Wound healing activity in Rattus norvegicus Swiss albino Wistar (rat) dead space wound model assessed as hydroxyproline content per 100 g tissue at 10 mg/ml, po measured on day 10 post-wounding by Neuman-Logan method (reference value: 1369.67 +/- 10.54 ug). The experiment is classed as functional.
In experiment [13] the test system is Rattus norvegicus. Description: Wound healing activity in Rattus norvegicus Swiss albino Wistar (rat) incision wound model assessed as skin breaking strength at 10 mg/ml, po measured on day 10 by tensiometric analysis (reference value: 400 +/- 28.87 g). In kind it is functional.
For experiment [14], the system named is Rattus norvegicus. Kind of experiment: Wound healing activity in Rattus norvegicus Swiss albino Wistar (rat) dead space wound model assessed as increase in collagenation of granulation tissue at 10 mg/ml, po measured on day 10 post-wounding by histological analysis relative to control. In kind it is functional, organism-based.
The subject of experiment [15] is Rattus norvegicus. Kind of experiment: Wound healing activity in Rattus norvegicus Swiss albino Wistar (rat) dead space wound model assessed as decrease in macrophages at 10 mg/ml, po measured on day 10 post-wounding by histological analysis relative to control. The experiment is classed as functional, organism-based.
Experiment [16] relates to Rattus norvegicus. Kind of experiment: Wound healing activity in po dosed Rattus norvegicus Swiss albino Wistar (rat) incision wound model assessed as skin breaking strength measured on day 10 post-wounding by tensiometric analysis (reference value: 400 +/- 28.87 g). The experiment is classed as functional.
Experiment [17] concerns Rattus norvegicus. Kind of experiment: Wound healing activity in Rattus norvegicus Swiss albino Wistar (rat) dead space wound model assessed as hydroxyproline content per 100 g tissue at 15 mg/ml, po measured on day 10 post-wounding by Neuman-Logan method (reference value: 1369.67 +/- 10.54 ug). In kind it is functional.
The subject of experiment [18] is Rattus norvegicus. Description: Wound healing activity in Rattus norvegicus Swiss albino Wistar (rat) incision wound model assessed as skin breaking strength at 15 mg/ml, po measured on day 10 post-wounding by tensiometric analysis (reference value: 400 +/- 28.87 g). In kind it is functional.
Experiment [19] deals with Rattus norvegicus. Description: Wound healing activity in Rattus norvegicus Swiss albino Wistar (rat) dead space wound model assessed as granular tissue weight per 100 g tissue at 15 mg/ml, po measured on day 10 post-wounding (reference value: 31 +/- 0.93 mg). In kind it is functional.
For experiment [20], the system named is Rattus norvegicus. Description: Wound healing activity in Rattus norvegicus Swiss albino Wistar (rat) dead space wound model assessed as tissue breaking strength at 15 mg/ml, po measured on day 10 post-wounding (reference value: 260.83 +/- 14.05 g). The experiment is classed as functional.

Among the data in ChEMBL document CHEMBL3046427, “Wound healing phytoconstituents from seed kernel of Entada pursaetha DC. and their molecular docking studies with glycogen synthase kinase 3-” (2012) are Activity and Time values, retold here.

Active and inactive are the calls of the source. The calls are words filed in the database; no cut-off is given here.

As to `CS/C=C/C(=O)NCCO` [ENTADAMIDE], the Activity with Rattus norvegicus [1] came out at 28.28%; with Rattus norvegicus [3], 463.33 g; in the experiment with Rattus norvegicus [4], 533.5 g; in the experiment on Rattus norvegicus [5], 57.32%; in the experiment with Rattus norvegicus [6], 71.27%; in the experiment on Rattus norvegicus [7], 1891.17 µg. The Activity amounted to 92.22% in the experiment on Rattus norvegicus [8] and 50.75 mg with Rattus norvegicus [9]. In addition, in the experiment with Rattus norvegicus [2], the Time turned out to be 19.92 days.

Take `CC1(C)CC[C@]2(C(=O)O)[C@H](O)[C@H](O)[C@]3(C)C(=CC[C@@H]4[C@@]5(C)CC[C@H](O)C(C)(C)[C@@H]5CC[C@]43C)[C@@H]2C1` [ENTAGENIC ACID]: the Activity in the experiment on Rattus norvegicus [10] amounted to 53.11 mg; with Rattus norvegicus [1], 33.39%; in the experiment with Rattus norvegicus [11] it was 549.83 g; in the experiment with Rattus norvegicus [12] it was 2001.33 µg; with Rattus norvegicus [5] it was 65.21%; with Rattus norvegicus [13], 655.67 g. Further, the values for the Activity in the experiment on Rattus norvegicus [6] and in the experiment on Rattus norvegicus [8] were 76.38% and 96.08%, respectively. Besides, the Time with Rattus norvegicus [2] is 18.08 days. Also, the result with Rattus norvegicus [14] and in the experiment with Rattus norvegicus [15] was Active.

On to `NC(=O)N/N=C/c1ccc([N+](=O)[O-])o1` [NITROFURAZONE], for which the Activity in the experiment on Rattus norvegicus [1] is 41.46%; with Rattus norvegicus [16] it was 683.33 g; in the experiment with Rattus norvegicus [5] it was 80.7%; with Rattus norvegicus [6] it was 91.32%; with Rattus norvegicus [8] it was 97.64%. Moreover, the Time in the experiment on Rattus norvegicus [2] turned out to be 16.33 days.

Regarding `O=C(O)Cc1cc(O)ccc1O[C@@H]1O[C@H](CO)[C@@H](O)[C@H](O)[C@H]1O` [PHASEOLOIDIN], the Activity in the experiment on Rattus norvegicus [17] was found to be 1690.33 µg; with Rattus norvegicus [18], 490.33 g; in the experiment with Rattus norvegicus [1], 27.08%; in the experiment on Rattus norvegicus [19] it was 43.92 mg; in the experiment on Rattus norvegicus [20] it was 450.17 g; in the experiment with Rattus norvegicus [5], 52.15%. The Activity with Rattus norvegicus [6] came out at 70.08%; with Rattus norvegicus [8] it was 88.5%. In addition, in the experiment on Rattus norvegicus [2], the Time worked out at 21.16 days.
